Target: T1, bradykinin B2 receptor (Cavia porcellus, UniProt O70526)
T1 construct: Ileum segments are isolated from male guinea-pigs; tissue Iffa Credo, l'Arbresle, France (supplier of the animals); host or cells: ileum membranes of male Dunkin-Hartley guinea-pigs
T1 sequence (O70526 1-372): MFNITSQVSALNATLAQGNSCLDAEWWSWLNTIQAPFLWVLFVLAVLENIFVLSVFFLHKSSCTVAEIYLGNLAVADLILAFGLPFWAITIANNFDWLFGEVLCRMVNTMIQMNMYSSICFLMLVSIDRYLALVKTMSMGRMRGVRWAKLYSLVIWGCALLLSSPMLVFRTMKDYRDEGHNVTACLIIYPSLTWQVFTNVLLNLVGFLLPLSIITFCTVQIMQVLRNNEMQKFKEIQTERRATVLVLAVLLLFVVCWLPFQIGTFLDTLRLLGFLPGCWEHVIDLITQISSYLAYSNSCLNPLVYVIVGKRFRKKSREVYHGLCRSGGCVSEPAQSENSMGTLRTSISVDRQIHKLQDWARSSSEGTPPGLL
Experiment: [3H]-bradykinin binding to guinea-pig ileum membranes
Details: test compound 10^-6 M, [3H]-bradykinin 120 pM, 90 min at 20° C., read-out: Activity (%): percentage inhibition of the binding of [3H]-bradykinin
Protocol: We used the following pharmacological test: Ileum segments are isolated from male guinea-pigs of the Dunkin-Hartley strain (Iffa Credo, l'Arbresle, France) and ground in the following TES buffer: TES 25 mM, 1,10-phenanthroline 1 mM (pH 6.8), bacitracin 140 μg/ml, BSA 1 g/l. The membranes are then isolated by centrifugation (18,000 rpm; 20 min; 4° C.). The binding studies are carried out in the TES buffer using [^3 H]-bradykinin (120 pM) and 50 μg of membrane protein per test (final volume 500 μl) with an equilibrium time of 90 min at 20° C. The percentage inhibition of the binding of [^3 H]-bradykinin is then determined in the presence of one of the test compounds according to the invention at a concentration of 10^-6 M.
The results obtained (indicated as "activity") from these tests are collated in Table I below with reference to the Examples given in the description.

inhibition at 1 µM	Compound
97.8%	COC(=O)C1CCCN1S(=O)(=O)c1ccc(Cl)c(COc2cccc3ccc(C)nc23)c1Cl (racemic) [Example 1, N-[[3-[(2-Methylquinolin-8-yl)oxymethyl]-2,4-dichlorophenyl]sulfonyl]-D,L-proline Methyl Ester]
76.9%	Cc1ccc2cccc(OCc3c(Cl)ccc(S(=O)(=O)N4CCCC4C(=O)OCCCN(C)C)c3Cl)c2n1 (racemic) [Example 11, N-[[3-[(2-Methylquinolin-8-yl)oxymethyl]-2,4-dichlorophenyl]sulfonyl]-D,L-proline 3-(dimethylamino)propyl Ester]
98.6%	COC(=O)[C@@H]1CCCN1S(=O)(=O)c1ccc(Cl)c(COc2cccc3ccc(C)nc23)c1Cl [Example 2, N-[[3-[(2-Methylquinolin-8-yl)oxymethyl]-2,4-dichlorophenyl]sulfonyl]-L-proline Methyl Ester]
92.6%	COCCNC(=O)C1CCCN1S(=O)(=O)c1ccc(Cl)c(COc2cccc3ccc(C)nc23)c1Cl (stereo not shown) [Example 4, 1-[[3-[(2-Methylquinolin-8-yl)oxymethyl]-2,4-dichlorophenyl]sulfonyl]-N-[2-methoxyethyl]-2-pyrrolidinecarboxamide]
90.1%	Cc1ccc2cccc(OCc3c(Cl)ccc(S(=O)(=O)N4CCCC4C(=O)NCCO)c3Cl)c2n1 (stereo not shown) [Example 5, 1-[[3-[(2-Methylquinolin-8-yl)oxymethyl]-2,4-dichlorophenyl]sulfonyl]-N-[2-hydroxyethyl]-2-pyrrolidinecarboxamide]
90.9%	Cc1ccc2cccc(OCc3c(Cl)ccc(S(=O)(=O)N4CCCC4C(=O)NCCCO)c3Cl)c2n1 (stereo not shown) [Example 6]
97.8%	Cc1ccc2cccc(OCc3c(Cl)ccc(S(=O)(=O)N4CCCC4C(=O)NCCCCCO)c3Cl)c2n1 (stereo not shown) [Example 7, 1-[[3-[(2-Methylquinolin-8-yl)oxymethyl]-2,4-dichlorophenyl]sulfonyl]-N-[5-hydroxypentyl]-2-pyrrolidinecarboxamide]
95.5%	Cc1ccc2cccc(OCc3c(Cl)ccc(S(=O)(=O)N4CCCC4C(=O)NCCN(C)C)c3Cl)c2n1 (stereo not shown) [Example 8, 1-[[3-[(2-Methylquinolin-8-yl)oxymethyl]-2,4-dichlorophenyl]sulfonyl]-N-[2-dimethylaminoethyl]-2-pyrrolidinecarboxamide Dihydrochioride]
97.6%	Cc1ccc2cccc(OCc3c(Cl)ccc(S(=O)(=O)N4CCCC4C(=O)NCCCN)c3Cl)c2n1 (stereo not shown) [Example 9, 1-[[3-[(2-Methylquinolin-8-yl)oxymethyl]-2,4-dichlorophenyl]sulfonyl]-N-[3-aminopropyl]-2-pyrrolidinecarboxamide]
96.4%	Cc1ccc2cccc(OCc3c(Cl)ccc(S(=O)(=O)N4CCCC4C(=O)NCc4ccccc4)c3Cl)c2n1 (stereo not shown) [Example 10, 1-[[3-[(2-Methylquinolin-8-yl)oxymethyl]-2,4-dichlorophenyl]sulfonyl]-N-[phenylmethyl]-2-pyrrolidinecarboxamide]
98.5%	CCNC(=O)[C@@H]1CCCN1S(=O)(=O)c1ccc(Cl)c(COc2cccc3ccc(C)nc23)c1Cl [Example 12, 1-[[3-[(2-Methylquinolin-8-yl)oxymethyl]-2,4-dichlorophenyl]sulfonyl]-N-ethyl-2-(S)-pyrrolidinecarboxamide]
98.6%	CC(=O)NC1CCN(S(=O)(=O)c2ccc(Cl)c(COc3cccc4ccc(C)nc34)c2Cl)C1 (stereo not shown) [Example 13, 3-[(1-Oxoethyl)amino]-1-[[3-[(2-methylquinolin-8-yl)oxymethyl]-2,4-dichlorophenyl]sulfonyl]pyrrolidine]
94%	Cc1ccc2cccc(OCc3c(Cl)ccc(S(=O)(=O)N4CCC(O)C4)c3Cl)c2n1 (stereo not shown) [Example 14, 3-Hydroxy-1-[[3-[(2-methylquinolin-8-yl)oxymethyl]-2,4-dichlorophenyl]-sulfonyl]pyrrolidine]
94.9%	Cc1ccc2cccc(OCc3c(Cl)ccc(S(=O)(=O)N4CCSC4)c3Cl)c2n1 [Example 15, 3-[[3-[(2-Methylquinolin-8-yl)oxymethyl]-2,4-dichlorophenyl]sulfonyl]-thiazolidine]
90.1%	Cc1ccc2cccc(OCc3c(Cl)ccc(S(=O)(=O)N4CCCC4)c3Cl)c2n1 [Example 16, 1-[[3-[(2-Methylquinolin-8-yl)oxymethyl]-2,4-dichlorophenyl]sulfonyl]-pyrrolidine]
93.8%	Cc1ccc2cccc(OCc3c(Cl)ccc(S(=O)(=O)n4cccc4)c3Cl)c2n1 [Example 17, 1-[[3-[(2-Methylquinolin-8-yl)oxymethyl]-2,4-dichlorophenyl]sulfonyl]pyrrole]

Source: patent US6080758A, “Benzenesulfonamide derivatives as bradykinin antagonists” (Fournier Industrie et Sante, priority 1995, dated 2000)
